# Laboratory results published in ChEMBL document CHEMBL1138129, “A novel nicotinic acetylcholine receptor antagonist radioligand for PET studies” (Bioorg Med Chem Lett, 2006).
# Tests used:
# [1] = Lipophilicity as measured by Log P; type: physicochemical; details: octanol/water
# [2] = molecular target: Neuronal acetylcholine receptor; alpha4/beta2 (Homo sapiens, UniProt P17787+P43681); experiment: Displacement of [3H]epibatidine from alpha-4-beta-2 ACHR; type: protein-complex assay
# [3] = Half life of the compound; type: ADME
# [4] = Protein binding in baboon plasma; type: ADME, Papio; details: read-out: PPB (converted)
# Chain of Neuronal acetylcholine receptor; alpha4/beta2 (P17787 whole entry): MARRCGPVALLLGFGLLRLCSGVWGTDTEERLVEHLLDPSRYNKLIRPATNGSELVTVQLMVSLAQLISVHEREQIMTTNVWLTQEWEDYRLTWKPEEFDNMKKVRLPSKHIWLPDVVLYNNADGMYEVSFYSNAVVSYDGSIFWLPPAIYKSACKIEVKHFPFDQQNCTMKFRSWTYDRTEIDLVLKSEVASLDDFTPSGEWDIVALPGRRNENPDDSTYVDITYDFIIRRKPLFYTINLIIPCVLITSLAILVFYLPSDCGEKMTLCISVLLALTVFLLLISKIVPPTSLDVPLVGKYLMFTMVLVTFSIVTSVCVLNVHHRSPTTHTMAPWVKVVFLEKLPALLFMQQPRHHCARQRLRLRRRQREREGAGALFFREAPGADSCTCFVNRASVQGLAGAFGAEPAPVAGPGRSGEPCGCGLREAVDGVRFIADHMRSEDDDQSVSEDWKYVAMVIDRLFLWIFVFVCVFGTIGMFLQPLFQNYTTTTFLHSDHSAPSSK
# Chain of Neuronal acetylcholine receptor; alpha4/beta2 (P43681 whole entry): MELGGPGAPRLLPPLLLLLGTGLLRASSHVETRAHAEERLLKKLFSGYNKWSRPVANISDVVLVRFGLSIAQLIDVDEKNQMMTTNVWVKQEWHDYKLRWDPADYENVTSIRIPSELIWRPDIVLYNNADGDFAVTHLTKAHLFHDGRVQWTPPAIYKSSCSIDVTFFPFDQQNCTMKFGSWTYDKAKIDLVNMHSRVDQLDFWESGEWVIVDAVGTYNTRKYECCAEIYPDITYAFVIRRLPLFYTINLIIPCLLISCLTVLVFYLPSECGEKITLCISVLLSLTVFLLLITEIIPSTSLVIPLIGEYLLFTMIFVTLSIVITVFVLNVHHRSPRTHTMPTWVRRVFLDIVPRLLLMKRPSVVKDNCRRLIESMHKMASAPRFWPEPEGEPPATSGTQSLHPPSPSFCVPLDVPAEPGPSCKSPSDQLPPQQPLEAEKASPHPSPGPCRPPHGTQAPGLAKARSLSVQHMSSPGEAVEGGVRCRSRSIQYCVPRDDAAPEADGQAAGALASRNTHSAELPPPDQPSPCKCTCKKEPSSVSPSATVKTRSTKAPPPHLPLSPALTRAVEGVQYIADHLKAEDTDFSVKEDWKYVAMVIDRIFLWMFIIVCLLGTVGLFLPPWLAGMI
compound,measurement,setting,value
[11CH3]N1C2CCC1C(c1cncc(I)c1)C2 (centres undefined),logP,[1],1.09
same,Ki,[2],29 nM
same,half-life,[3],60 min
same,fraction unbound,[4],0.6
